Experiments:
[1] = biological target: T1, AHR (Homo sapiens, UniProt P35869); assay: In vitro assay 2: agonism in human cell line (transactivation assay)
T1 sequence (P35869 11-848): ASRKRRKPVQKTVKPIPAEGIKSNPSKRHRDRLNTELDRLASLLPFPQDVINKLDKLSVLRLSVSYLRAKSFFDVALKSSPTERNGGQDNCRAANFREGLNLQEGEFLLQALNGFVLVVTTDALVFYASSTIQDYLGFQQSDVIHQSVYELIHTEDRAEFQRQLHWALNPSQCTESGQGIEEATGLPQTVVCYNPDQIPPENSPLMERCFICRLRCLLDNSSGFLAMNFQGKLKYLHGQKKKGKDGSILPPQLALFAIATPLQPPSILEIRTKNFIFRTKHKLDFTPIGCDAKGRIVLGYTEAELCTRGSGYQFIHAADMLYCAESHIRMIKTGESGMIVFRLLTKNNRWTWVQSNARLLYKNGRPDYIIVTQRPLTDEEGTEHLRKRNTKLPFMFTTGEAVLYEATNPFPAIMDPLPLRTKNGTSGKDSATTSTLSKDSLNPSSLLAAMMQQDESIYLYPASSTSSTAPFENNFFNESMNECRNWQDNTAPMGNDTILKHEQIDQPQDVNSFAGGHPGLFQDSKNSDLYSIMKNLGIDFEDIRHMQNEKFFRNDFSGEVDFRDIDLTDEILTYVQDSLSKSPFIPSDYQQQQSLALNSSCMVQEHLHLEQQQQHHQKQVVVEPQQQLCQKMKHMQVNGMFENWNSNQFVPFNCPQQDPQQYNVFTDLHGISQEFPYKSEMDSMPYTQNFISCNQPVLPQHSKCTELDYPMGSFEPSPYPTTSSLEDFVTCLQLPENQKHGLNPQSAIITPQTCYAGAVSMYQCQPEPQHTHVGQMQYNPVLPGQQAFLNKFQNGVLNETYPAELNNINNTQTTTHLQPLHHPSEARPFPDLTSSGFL

[2] = biological target: T1, AHR; assay: In vitro assay 1: antagonism in human cell line (transactivation assay, kynurenic acid prestimulated); conditions: Assay 1: AHR-luc Hum Antagonism IC50 [M], 150 μM kynurenic acid, 20 hours, firefly luciferase
[3] = Assay 2: AHR-luc Hum Agonism IC50 [M], no kynurenic acid, 20 hours, firefly luciferase

Row | IC50 [1, 3] [M] | IC50 [2] [M] | IC50 ([1]; read-out: Assay 2: AHR-luc Hum Agonism IC50, no kynurenic acid, 20 hours, firefly luciferase) [M] | Structure (SMILES)
1 | > 2e-05 | 3.1e-07 |  | O=C(NCC(O)C(F)(F)F)c1cc(-c2ccc(Cl)c(F)c2)nn(-c2cc(F)cc(F)c2)c1=O (stereo not drawn) [Example 403, 6-(4-chloro-3-fluorophenyl)-2-(3,5-difluorophenyl)-3-oxo-N-(3,3,3-trifluoro-2-hydroxypropyl)-2,3-dihydropyridazine-4-carboxamide]
2 | > 2e-05 | 9.39e-08 |  | CC(C)[C@@H](CO)NC(=O)c1cc(-c2ccc(Cl)c(F)c2)nn(-c2cccc(F)c2)c1=O [Example 285, 6-(4-Chloro-3-fluorophenyl)-2-(3-fluorophenyl)-N-[(2S)-1-hydroxy-3-methylbutan-2-yl]-3-oxo-2,3-dihydropyridazine-4-carboxamide]
3 | > 2e-05 | 1.21e-08 |  | O=C(NC(CO)C1CC1)c1cc(-c2ccc(Cl)cc2)nn(-c2cccc(F)c2)c1=O (single isomer, unassigned; (-)) [Example 194, (−)-6-(4-Chlorophenyl)-N-(1-cyclopropyl-2-hydroxyethyl)-2-(3-fluorophenyl)-3-oxo-2,3-dihydropyridazine-4-carboxamide]
4 | > 2e-05 | 2.52e-08 |  | O=C(NC(CO)C1CC1)c1cc(-c2ccc(Cl)cc2)nn(-c2cccc(F)c2)c1=O (racemic) [Example 193, 6-(4-Chlorophenyl)-N-[(1RS)-1-cyclopropyl-2-hydroxyethyl]-2-(3-fluorophenyl)-3-oxo-2,3-dihydropyridazine-4-carboxamide]
5 | > 2e-05 | 2.13e-07 |  | CC(O)CCNC(=O)c1cc(-c2ccc(Cl)cc2)nn(-c2cccc(F)c2)c1=O (racemic) [Example 203, 6-(4-Chlorophenyl)-2-(3-fluorophenyl)-N-[(3RS)-3-hydroxybutyl]-3-oxo-2,3-dihydropyridazine-4-carboxamide]
6 | > 2e-05 | 1.19e-07 |  | O=C(NCC(O)C1CCCC1)c1cc(-c2ccc(Cl)cc2)nn(-c2cccc(F)c2)c1=O (racemic) [Example 232, 6-(4-Chlorophenyl)-N-[(2RS)-2-cyclopentyl-2-hydroxyethyl]-2-(3-fluorophenyl)-3-oxo-2,3-dihydropyridazine-4-carboxamide]
7 |  | 3.17e-08 | > 2e-05 | O=C(NCC(O)C(F)(F)F)c1cc(-c2ccc(C(F)(F)F)cc2)nn(-c2cccc(F)c2)c1=O (single isomer, unassigned; (+)) [Example 244]
8 | > 2e-05 | 9.24e-07 |  | C[C@@H](CO)NC(=O)c1cc(-c2ccc(Cl)cc2)nn(-c2cccc(C(F)F)c2)c1=O [Example 370, 6-(4-chlorophenyl)-2-[3-(difluoromethyl)phenyl]-N-[(2S)-1-hydroxypropan-2-yl]-3-oxo-2,3-dihydropyridazine-4-carboxamide]
9 | > 2e-05 | 4.18e-08 |  | O=C(N[C@@H]1CC[C@@H]1O)c1cc(-c2ccc(Cl)cc2)nn(-c2cccc(F)c2)c1=O (racemic) [Example 356, 6-(4-chlorophenyl)-2-(3-fluorophenyl)-N-(cis-2-hydroxycyclobutyl)-3-oxo-2,3-dihydropyridazine-4-carboxamide]
10 | > 2e-05 | 1.72e-07 |  | O=C(N[C@H]1COC[C@@H]1O)c1cc(-c2ccc(Cl)cc2)nn(-c2cccc(F)c2)c1=O (relative stereo) [Example 134, 6-(4-Chlorophenyl)-2-(3-fluorophenyl)-N-(trans-4-hydroxytetrahydrofuran-3-yl)-3-oxo-2,3-dihydropyridazine-4-carboxamide]
11 | > 2e-05 | 3.15e-07 |  | O=C(N[C@@H](CO)Cc1cnc[nH]1)c1cc(-c2ccc(Cl)cc2)nn(-c2cccc(F)c2)c1=O [Example 161, 6-(4-Chlorophenyl)-2-(3-fluorophenyl)-N-[(2R)-1-hydroxy-3-(1H-imidazol-5-yl)propan-2-yl]-3-oxo-2,3-dihydropyridazine-4-carboxamide]
12 | > 2e-05 | 1.79e-08 |  | CC(C)[C@@H](CO)NC(=O)c1cc(-c2ccc(OC(F)F)cc2)nn(-c2cccc(F)c2)c1=O [Example 110, 6-[4-(Difluoromethoxy)phenyl]-2-(3-fluorophenyl)-N-[(2S)-1-hydroxy-3-methylbutan-2-yl]-3-oxo-2,3-dihydropyridazine-4-carboxamide]

— patent US11040035B2, “3-oxo-2,6-diphenyl-2,3-dihydropyridazine-4-carboxamides” (BAYER PHARMA AKTIENGESELLSCHAFT, priority 2016, dated 2021)
